Values quoted from earlier work as cited in US20030232875A1, “Bicyclic pyrrolyl amides as glucogen phosphorylase inhibitors” (priority 2000, published 2003).

Assays:
[1] = tested on: conscious dogs; conditions: following a glucagon challenge
[2] = tested on: db/db and ob/ob mice; conditions: db/db and ob/ob mice following treatment
[3] = tested on: hepatocytes; conditions: in hepatocytes

SMILES	arterial plasma glucose levels [1]	hepatic glucose output [1]	plasma glucose concentration [2]	glucagon stimulated glycogenolysis [3]	glucose output [3]
CCN1C(C)=C(C(=O)OC(C)C)C(c2ccccc2Cl)C2=C1COC2=O (centres unmarked) [Bay R 3401]	reduced significantly	reduced significantly	–	–	–
CN(C)C(=O)[C@H](O)[C@H](Cc1ccccc1)NC(=O)c1cc2cc(Cl)ccc2[nH]1 [CP91149]	–	–	reduced, in a dose related manner	reduce	reduce
O=C(N[C@@H](Cc1ccc(F)cc1)C(=O)N1CCC(O)CC1)c1cc2cc(Cl)ccc2[nH]1 [CP320626]	–	–	reduced, in a dose related manner	reduce	reduce
